In US11116735B2, “Use of substituted benzylideneguanidine derivatives as synergists for polymyxin antibiotics” (GUANGZHOU INSIGHTER BIOTECHNOLOGY CO., LTD., priority 2015, dated 2021):

Key:
[1] = tested on: E. coli 3B-24; assay: MIC by doubling dilution, colistin sulfate-susceptible E. coli 3B-24; assay type: cell-based, Escherichia coli; conditions: for In vitro minimum inhibitory concentration (MIC) of the substance alone: E. coli 3B-24, colistin sulfate-susceptible, derivatives as hydrochlorides; for In vitro MIC of colistin sulfate in the presence of the substituted benzylideneguanidine derivative: E. coli 3B-24, culture comprised 20.0 ppm of the derivative (hydrochloride), colistin sulfate serially diluted
[2] = tested on: E. coli 4D-6; assay: MIC by doubling dilution, colistin sulfate-resistant E. coli 4D-6; conditions: for In vitro minimum inhibitory concentration (MIC) of the substance alone: E. coli 4D-6, colistin sulfate-resistant, derivatives as hydrochlorides; for In vitro MIC of colistin sulfate in the presence of the substituted benzylideneguanidine derivative: E. coli 4D-6, resistant, culture comprised 20.0 ppm of the derivative (hydrochloride)
Description: (§1) In vitro minimum inhibitory concentrations of colistin sulfate against the strains where the cultures respectively comprised 20.0 ppm of the substituted benzylideneguanidine derivatives were also measured.

[3] = tested on: E. coli 5W-7; assay: MIC by doubling dilution, colistin sulfate-susceptible E. coli 5W-7; assay type: cell-based, Escherichia coli; conditions: for In vitro minimum inhibitory concentration (MIC) of the substance alone: E. coli 5W-7, colistin sulfate-susceptible, derivatives as hydrochlorides; for In vitro MIC of colistin sulfate in the presence of the substituted benzylideneguanidine derivative: E. coli 5W-7, culture comprised 20.0 ppm of the derivative (hydrochloride), colistin sulfate serially diluted
[4] = tested on: E. coli 2G-7; assay: MIC by doubling dilution, colistin sulfate-resistant E. coli 2G-7; conditions: for In vitro minimum inhibitory concentration (MIC) of the substance alone: E. coli 2G-7, colistin sulfate-resistant, derivatives as hydrochlorides; for In vitro MIC of colistin sulfate in the presence of the substituted benzylideneguanidine derivative: E. coli 2G-7, resistant, culture comprised 20.0 ppm of the derivative (hydrochloride)
Description: as §1

[5] = tested on: E. coli 2S-19; assay: MIC by doubling dilution, colistin sulfate-susceptible E. coli 2S-19; assay type: cell-based, Escherichia coli; conditions: for In vitro minimum inhibitory concentration (MIC) of the substance alone: E. coli 2S-19, colistin sulfate-susceptible, derivatives as hydrochlorides; for In vitro MIC of colistin sulfate in the presence of the substituted benzylideneguanidine derivative: E. coli 2S-19, culture comprised 20.0 ppm of the derivative (hydrochloride), colistin sulfate serially diluted
[6] = tested on: E. coli 3Y-9; assay: MIC by doubling dilution, colistin sulfate-susceptible E. coli 3Y-9; assay type: cell-based, Escherichia coli; conditions: for In vitro minimum inhibitory concentration (MIC) of the substance alone: E. coli 3Y-9, colistin sulfate-susceptible, derivatives as hydrochlorides; for In vitro MIC of colistin sulfate in the presence of the substituted benzylideneguanidine derivative: E. coli 3Y-9, culture comprised 20.0 ppm of the derivative (hydrochloride), colistin sulfate serially diluted
[7] = tested on: E. coli 5F-1; assay: MIC by doubling dilution, colistin sulfate-resistant E. coli 5F-1; conditions: for In vitro minimum inhibitory concentration (MIC) of the substance alone: E. coli 5F-1, colistin sulfate-resistant, derivatives as hydrochlorides; for In vitro MIC of colistin sulfate in the presence of the substituted benzylideneguanidine derivative: E. coli 5F-1, resistant, culture comprised 20.0 ppm of the derivative (hydrochloride)
Description: as §1

[8] = tested on: E. coli 3H-4; assay: MIC by doubling dilution, colistin sulfate-resistant E. coli 3H-4; conditions: for In vitro minimum inhibitory concentration (MIC) of the substance alone: E. coli 3H-4, colistin sulfate-resistant, derivatives as hydrochlorides; for In vitro MIC of colistin sulfate in the presence of the substituted benzylideneguanidine derivative: E. coli 3H-4, resistant, culture comprised 20.0 ppm of the derivative (hydrochloride)
Description: as §1

| Structure (SMILES) | In vitro minimum inhibitory concentration (MIC) of the substance alone [1] [ppm] | In vitro MIC of colistin sulfate in the presence of the substituted benzylideneguanidine derivative [1] [ppm] | In vitro minimum inhibitory concentration (MIC) of the substance alone [2] [ppm] | In vitro MIC of colistin sulfate in the presence of the substituted benzylideneguanidine derivative [2] [ppm] | In vitro minimum inhibitory concentration (MIC) of the substance alone [3] [ppm] | In vitro MIC of colistin sulfate in the presence of the substituted benzylideneguanidine derivative [3] [ppm] | In vitro minimum inhibitory concentration (MIC) of the substance alone [4] [ppm] | In vitro MIC of colistin sulfate in the presence of the substituted benzylideneguanidine derivative [4] [ppm] | In vitro minimum inhibitory concentration (MIC) of the substance alone [5] [ppm] | In vitro MIC of colistin sulfate in the presence of the substituted benzylideneguanidine derivative [5] [ppm] | In vitro minimum inhibitory concentration (MIC) of the substance alone [6] [ppm] | In vitro MIC of colistin sulfate in the presence of the substituted benzylideneguanidine derivative [6] [ppm] | In vitro minimum inhibitory concentration (MIC) of the substance alone [7] [ppm] | In vitro MIC of colistin sulfate in the presence of the substituted benzylideneguanidine derivative [7] [ppm] | In vitro minimum inhibitory concentration (MIC) of the substance alone [8] [ppm] | In vitro MIC of colistin sulfate in the presence of the substituted benzylideneguanidine derivative [8] [ppm] |
| --- | --- | --- | --- | --- | --- | --- | --- | --- | --- | --- | --- | --- | --- | --- | --- | --- |
| CCOc1ccc(C=NN=C(N)NN=Cc2ccc(OCC)cc2)cc1 [Compound 2] | >800 | 2.00 | >800 | 8.0 | >800 | 1.00 | >800 | 2.0 | >800 | 2.00 | >800 | 2.00 | >800 | 4.0 | >800 | 2.0 |
| CCSc1ccc(C=NNC(=N)NN=Cc2ccc(SCC)cc2)cc1 [Compound 9] | >800 | 1.00 | >800 | 16 | >800 | 0.50 | >800 | 4 | >800 | 1.00 | >800 | 1.00 | >800 | 8 | >800 | 4 |
| Cc1ccc(C=NN=C(N)NN=Cc2ccc(C)cc2)cc1 [Compound 10] | >800 | 1.00 | >800 | 16 | >800 | 0.50 | >800 | 4 | >800 | 1.00 | >800 | 1.00 | >800 | 8 | >800 | 4 |
| CC(C)c1ccc(C=NNC(=N)NN=Cc2ccc(C(C)C)cc2)cc1 [Compound 11] | >800 | 2.00 | >800 | 64 | >800 | 0.50 | >800 | 16 | >800 | 1.00 | >800 | 1.00 | >800 | 16 | >800 | 16 |
| COC(=O)c1ccc(C=NN=C(N)NN=Cc2ccc(C(=O)OC)cc2)cc1 [Compound 12] | >800 | 1.00 | >800 | 16 | >800 | 0.50 | >800 | 4 | >800 | 1.00 | >800 | 1.00 | >800 | 8 | >800 | 4 |
| N#Cc1ccc(C=NN=C(N)NN=Cc2ccc(C#N)cc2)cc1 [Compound 13] | >800 | 0.50 | >800 | 16 | >800 | 0.50 | >800 | 4 | >800 | 1.00 | >800 | 1.00 | >800 | 8 | >800 | 4 |
